Legend:
[1] = Compound stability in human liver microsomes; assay type: in vitro ADME; settings: for half-life at 5 μM / CLint scaled at 5 μM: pH 7.4; for half-life at 5 μM: read-out: Human T1/2; for CLint scaled at 5 μM: human liver microsomes, in vivo CLint extrapolated
Experimental: (§1) Human or rat liver microsomes incubations were conducted in duplicate in polypropylene tubes. The typical incubation mixtures consisted of human or rat liver microsomes (0.5 mg protein/mL), compounds of interest (5 μM) and NADPH (1.0 mM) in a total volume of 200 μL potassium phosphate buffer (PBS, 100 mM, pH 7.4). Compounds were dissolved in DMSO and diluted with PBS such that the final concentration of DMSO was 0.05%. The enzymatic reactions were commenced with the addition of […] after a 3-min preincubation and incubated in a water bath open to the air at 37° C. Reactions were terminated at various time points (0, 5, 10, 15, 30, 60 min) by adding equal volume of ice-cold acetonitrile. The samples were stored at […] until LC/MS/MS assays.
(§2) The concentrations of compounds in the incubation mixtures of human or rat liver microsomes were determined by a LC/MS/MS method. The ranges of the linearity in the concentration range were determined for each tested compounds.
(§3) A parallel incubation was performed using denatured microsomes as the negative control, and reactions were terminated at various time points (0, 15, 60 min) after incubation at 37° C.
(§4) Dextromethorphan (70 μM) was selected as the positive control, and reactions were terminated at various time points (0, 5, 10, 15, 30, 60 min) after incubation at 37° C. Both positive and negative control samples were included in each assay to ensure the integrity of the microsomal incubation system.
(§5) The concentrations of compounds in human or rat liver microsome incubations were plotted as a percentage of the relevant zero time point control for each reaction. The in vivo CLint were extrapolated (ref.: Naritomi, Y.; Terashita, S.; Kimura, S.; Suzuki, A.; Kagayama, A.; and Sugiyama, Y.; Prediction of human hepatic clearance from in vivo animal experiments and in vitro metabolic studies with liver microsomes from animals and humans. Drug Metab. Dispos., 2001, 29: 1316-1324).

[2] = Compound stability in rat liver microsomes; assay type: in vitro ADME; settings: pH 7.4; for half-life at 5 μM: rat liver microsomes 0.5 mg protein/mL, compound 5 μM, NADPH 1.0 mM, 37° C., read-out: Rat T1/2; for CLint scaled at 5 μM: rat liver microsomes, in vivo CLint extrapolated
Experimental: as §1, §2, §3, §4, §5

[3] = Pharmacokinetics after intravenous and oral administration in rats; assay type: in vivo, rat; settings: iv dosing, 1 mg/kg; for AUC(0-t) / half-life / Vd: rat, plasma; for Vd: read-out: Vss
Experimental: The compounds disclosed herein are assessed in pharmacokinetic studies in mice, rats, dogs or monkeys. The compounds are administered as a water solution, 2% HPMC+1% TWEEN®80 in water solution, 5% DMSO+5% solutol in saline, 4% MC suspension or capsule. For the intravenous administration, the animals are generally given at 1 or 2 mg/kg dose. For the oral (p.o.) dosing, mice and rats are generally given 5 or 10 mg/kg dose, and dogs and monkeys are generally given 10 mg/kg dose. The blood samples (0.3 mL) are drawn at 0.25, 0.5, 1.0, 2.0, 3.0, 4.0, 6.0, 8.0, 12 and 24 h time points or 0.083, 0.25, 0.5, 1.0, 2.0, 4.0, 6.0, 8.0 and 24 h time points and centrifuged at 3,000 or 4000 rpm for 2 to 10 min. The plasma solutions are collected, and stored at −20° C. or −70° C. until analyzed by LC/MS/MS as described above.

JAK1 (h) = JAK1 (h) (Homo sapiens (Human), UniProt P23458); experiment: JAK1 (h) kinase assay; assay type: biochemical
Experimental: (§6) Kinase assays can be performed by measurement of incorporation of γ-^33P ATP into immobilized myelin basic protein (MBP). High binding white 384 well plates (Greiner) are coated with MBP (Sigma #M-1891) by incubation of 60 μL/well of 20 μg/mL MBP in Tris-buffered saline (TBS; 50 mM Tris pH 8.0, 138 mM NaCl, 2.7 mM KCl) for 24 h at 4° C. Plates are washed 3× with 100 μL TBS. Kinase reactions are carried out in a total volume of 34 μL in kinase buffer (5 mM Hepes pH 7.6, 15 mM NaCl, 0.01% bovine gamma globulin (Sigma #I-5506), 10 mM MgCl2, 1 mM DTT, 0.02% TritonX-100). Compound dilutions are performed in DMSO and added to assay wells to a final DMSO concentration of 1%. Each data point is measured in duplicate, and at least two duplicate assays are performed for each individual compound determination. Enzyme is added to final concentrations of 10 nM or 20 nM, for example. A mixture of unlabeled ATP and γ-^33P ATP is added to start the reaction (2×10^6 cpm of γ-^33P ATP per well (3000 Ci/mmole) and 10 μM unlabeled ATP, typically. The reactions are carried out for 1 h at room temperature with shaking Plates are washed 7× with TBS, followed by the addition of 50 μL/well scintillation fluid (Wallac). Plates are read using a Wallac Trilux counter. This is only one format of such assays; various other formats are possible, as known to one skilled in the art.
The above assay procedure can be used to determine the IC50 for inhibition and/or the inhibition constant, Ki. The IC50 is defined as the concentration of compound required to reduce the enzyme activity by 50% under the condition of the assay. The IC50 value is estimated by preparing a 10 point curve using a ½ log dilution series (for example, a typical curve may be prepared using the following compound concentrations: 3 μM, 1 μM, 0.3 μM, 0.1 μM, 0.03 μM, 0.01 μM, 0.003 μM, 0.001 μM, 0.0003 μM, and 0 μM).
(§7) The kinase assays described herein were performed at Millipore UK Ltd, Dundee Technology Park, Dundee DD2 1SW, UK.

JAK2 (h) = JAK2 (h) (Homo sapiens (Human), UniProt O60674); experiment: JAK2 (h) kinase assay; assay type: biochemical
Experimental: as §6, with “art. […]” for “art.”

Aurora-B (h) = Aurora-B (h) (Homo sapiens (Human), UniProt Q96GD4); experiment: Aurora-B (h) kinase assay; assay type: biochemical
Experimental: as §6, with “art. […]” for “art.”

FLT3 (h) = FLT3 (h) (Homo sapiens (Human), UniProt P36888); experiment: FLT3 (h) kinase assay; assay type: biochemical
Experimental: as §6, with “art. […]” for “art.”

Aurora-A (h) = Aurora-A (h) (Homo sapiens (Human), UniProt O14965); experiment: Aurora-A (h) kinase assay; assay type: biochemical
Experimental: Kinase assays can be performed by measurement of incorporation of γ-^33P ATP into immobilized myelin basic protein (MBP). […] Plates are washed 3× with 100 μL TBS. Kinase reactions are carried out in a total volume of 34 μL in kinase buffer (5 mM Hepes pH 7.6, 15 mM NaCl, 0.01% bovine gamma globulin (Sigma #I-5506), 10 mM MgCl2, 1 mM DTT, 0.02% TritonX-100). Compound dilutions are performed in DMSO and added to assay wells to a final DMSO concentration of 1%. Each data point is measured in duplicate, and at least two duplicate assays are performed for each individual compound determination. Enzyme is added to final concentrations of 10 nM or 20 nM, for example.
The above assay procedure can be used to determine the IC50 for inhibition and/or the inhibition constant, Ki. The IC50 is defined as the concentration of compound required to reduce the enzyme activity by 50% under the condition of the assay.
as §7

[4] = human liver microsomes 0.5 mg protein/mL, compound 5 μM, NADPH 1.0 mM, 37° C.

JAK1 (h), sequence (P23458 whole entry): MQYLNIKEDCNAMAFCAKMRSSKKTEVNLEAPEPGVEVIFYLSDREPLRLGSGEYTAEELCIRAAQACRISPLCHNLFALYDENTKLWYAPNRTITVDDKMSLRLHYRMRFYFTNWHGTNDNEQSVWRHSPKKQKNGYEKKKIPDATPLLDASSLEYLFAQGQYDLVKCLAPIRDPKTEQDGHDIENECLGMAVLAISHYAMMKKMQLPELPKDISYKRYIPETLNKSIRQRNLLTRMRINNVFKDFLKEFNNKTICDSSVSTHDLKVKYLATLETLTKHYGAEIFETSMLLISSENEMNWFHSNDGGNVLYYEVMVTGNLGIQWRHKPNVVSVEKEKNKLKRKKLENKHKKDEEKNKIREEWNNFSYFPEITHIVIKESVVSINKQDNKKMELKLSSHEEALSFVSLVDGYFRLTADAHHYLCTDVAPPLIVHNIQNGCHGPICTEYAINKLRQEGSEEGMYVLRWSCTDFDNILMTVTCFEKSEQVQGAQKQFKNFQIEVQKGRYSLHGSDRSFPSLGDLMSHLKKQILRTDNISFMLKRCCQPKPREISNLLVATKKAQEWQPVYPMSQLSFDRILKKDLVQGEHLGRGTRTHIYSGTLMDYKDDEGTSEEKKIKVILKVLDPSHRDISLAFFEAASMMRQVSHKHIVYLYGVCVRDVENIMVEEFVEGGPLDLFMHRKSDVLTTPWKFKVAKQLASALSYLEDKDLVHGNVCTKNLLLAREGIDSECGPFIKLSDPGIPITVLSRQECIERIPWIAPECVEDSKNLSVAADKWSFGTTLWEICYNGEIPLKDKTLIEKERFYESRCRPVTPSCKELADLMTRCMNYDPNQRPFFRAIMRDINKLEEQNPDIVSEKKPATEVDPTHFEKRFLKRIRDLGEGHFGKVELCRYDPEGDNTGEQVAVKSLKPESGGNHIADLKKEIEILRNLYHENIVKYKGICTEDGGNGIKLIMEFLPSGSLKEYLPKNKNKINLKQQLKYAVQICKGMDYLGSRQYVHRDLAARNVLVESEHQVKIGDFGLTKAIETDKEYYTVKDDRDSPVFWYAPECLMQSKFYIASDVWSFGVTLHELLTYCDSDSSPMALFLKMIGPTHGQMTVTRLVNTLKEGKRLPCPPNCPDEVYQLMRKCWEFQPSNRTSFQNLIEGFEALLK
Aurora-A (h), sequence (O14965 whole entry): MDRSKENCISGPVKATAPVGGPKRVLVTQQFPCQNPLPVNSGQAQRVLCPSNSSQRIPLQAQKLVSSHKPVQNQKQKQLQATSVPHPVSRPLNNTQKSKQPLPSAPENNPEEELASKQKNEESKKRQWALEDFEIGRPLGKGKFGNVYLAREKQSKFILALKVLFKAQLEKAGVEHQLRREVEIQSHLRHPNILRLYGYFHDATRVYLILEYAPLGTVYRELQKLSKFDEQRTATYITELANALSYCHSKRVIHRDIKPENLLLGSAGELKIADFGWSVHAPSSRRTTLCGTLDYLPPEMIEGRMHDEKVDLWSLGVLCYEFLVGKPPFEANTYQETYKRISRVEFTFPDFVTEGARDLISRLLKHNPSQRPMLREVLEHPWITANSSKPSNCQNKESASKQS
FLT3 (h), sequence (P36888 27-993): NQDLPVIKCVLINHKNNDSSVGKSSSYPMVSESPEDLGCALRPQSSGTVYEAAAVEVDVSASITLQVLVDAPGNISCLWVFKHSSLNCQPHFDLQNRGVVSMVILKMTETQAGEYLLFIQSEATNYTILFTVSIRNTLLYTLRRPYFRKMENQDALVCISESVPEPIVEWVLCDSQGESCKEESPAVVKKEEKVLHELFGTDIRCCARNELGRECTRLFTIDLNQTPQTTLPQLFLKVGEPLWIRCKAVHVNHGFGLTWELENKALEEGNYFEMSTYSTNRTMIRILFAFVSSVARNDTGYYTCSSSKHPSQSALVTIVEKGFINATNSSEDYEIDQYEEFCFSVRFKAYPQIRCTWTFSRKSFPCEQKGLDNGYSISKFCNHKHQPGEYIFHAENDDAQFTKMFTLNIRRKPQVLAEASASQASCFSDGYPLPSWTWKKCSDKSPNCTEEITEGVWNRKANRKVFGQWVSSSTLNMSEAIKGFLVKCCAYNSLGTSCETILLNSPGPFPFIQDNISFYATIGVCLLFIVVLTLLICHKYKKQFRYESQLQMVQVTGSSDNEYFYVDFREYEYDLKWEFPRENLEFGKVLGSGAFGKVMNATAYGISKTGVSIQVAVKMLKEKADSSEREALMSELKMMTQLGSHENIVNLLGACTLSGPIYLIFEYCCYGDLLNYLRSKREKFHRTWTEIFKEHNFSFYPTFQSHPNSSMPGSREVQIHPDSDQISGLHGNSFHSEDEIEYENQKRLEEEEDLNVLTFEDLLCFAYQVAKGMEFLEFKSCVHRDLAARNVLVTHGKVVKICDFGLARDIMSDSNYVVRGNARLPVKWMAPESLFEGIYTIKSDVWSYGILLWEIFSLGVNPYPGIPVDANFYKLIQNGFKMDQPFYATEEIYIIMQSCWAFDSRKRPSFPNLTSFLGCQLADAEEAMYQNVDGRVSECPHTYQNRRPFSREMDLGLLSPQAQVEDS
Aurora-B (h), sequence (Q96GD4 whole entry): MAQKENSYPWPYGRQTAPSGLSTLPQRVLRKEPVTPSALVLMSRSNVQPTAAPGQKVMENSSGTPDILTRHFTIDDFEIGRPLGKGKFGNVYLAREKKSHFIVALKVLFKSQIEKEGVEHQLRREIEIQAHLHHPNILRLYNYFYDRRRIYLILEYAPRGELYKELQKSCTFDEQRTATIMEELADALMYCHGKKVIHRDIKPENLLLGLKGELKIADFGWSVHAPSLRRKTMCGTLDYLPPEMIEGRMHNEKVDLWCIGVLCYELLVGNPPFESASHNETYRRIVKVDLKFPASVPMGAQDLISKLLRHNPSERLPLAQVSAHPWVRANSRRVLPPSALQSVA
JAK2 (h), sequence (O60674 whole entry): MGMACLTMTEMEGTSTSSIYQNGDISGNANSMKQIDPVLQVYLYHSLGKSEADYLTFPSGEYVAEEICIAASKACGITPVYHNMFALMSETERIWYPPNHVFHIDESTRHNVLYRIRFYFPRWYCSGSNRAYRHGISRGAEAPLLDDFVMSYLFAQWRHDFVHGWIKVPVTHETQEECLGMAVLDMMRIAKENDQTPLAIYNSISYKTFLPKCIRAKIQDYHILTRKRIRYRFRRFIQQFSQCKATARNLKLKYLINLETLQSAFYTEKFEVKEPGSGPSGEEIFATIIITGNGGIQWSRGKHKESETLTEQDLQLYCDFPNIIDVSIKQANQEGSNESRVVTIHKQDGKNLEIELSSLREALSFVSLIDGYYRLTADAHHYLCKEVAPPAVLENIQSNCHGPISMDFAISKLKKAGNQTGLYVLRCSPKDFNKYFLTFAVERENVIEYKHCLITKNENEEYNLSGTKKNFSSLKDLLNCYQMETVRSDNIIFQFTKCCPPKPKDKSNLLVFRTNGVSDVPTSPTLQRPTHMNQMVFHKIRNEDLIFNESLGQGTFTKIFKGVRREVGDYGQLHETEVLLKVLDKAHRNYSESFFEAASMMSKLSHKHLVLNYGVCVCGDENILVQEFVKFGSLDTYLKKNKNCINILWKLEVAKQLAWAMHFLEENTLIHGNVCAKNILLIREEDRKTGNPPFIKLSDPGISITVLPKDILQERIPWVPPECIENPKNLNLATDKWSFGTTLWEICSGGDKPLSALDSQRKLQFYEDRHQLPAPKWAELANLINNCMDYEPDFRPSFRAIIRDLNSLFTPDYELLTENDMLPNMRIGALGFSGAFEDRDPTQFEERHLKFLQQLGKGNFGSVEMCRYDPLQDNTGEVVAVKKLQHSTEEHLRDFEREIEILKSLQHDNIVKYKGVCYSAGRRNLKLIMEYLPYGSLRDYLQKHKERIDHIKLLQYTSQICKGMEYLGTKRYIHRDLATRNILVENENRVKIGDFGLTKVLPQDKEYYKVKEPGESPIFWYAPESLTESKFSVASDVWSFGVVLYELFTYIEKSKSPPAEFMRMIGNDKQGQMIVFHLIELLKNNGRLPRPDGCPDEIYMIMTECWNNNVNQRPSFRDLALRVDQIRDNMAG

Row | SMILES | half-life at 5 μM [1, 4] [h] | CLint scaled at 5 μM [1] [mL/min/kg] | half-life at 5 μM [2] [h] | CLint scaled at 5 μM [2] [mL/min/kg] | Cl/F [3] [mL/min/kg] | AUC(0-t) [3] [ng·h/mL] | half-life [3] [h] | Vd [3] [L/kg] | IC50 (JAK1 (h)) [nM] | Human T1/2 [1, 4] | IC50 (Aurora-B (h)) [nM] | IC50 (FLT3 (h)) [nM] | IC50 (Aurora-A (h)) [nM] | IC50 (JAK2 (h)) [nM]
1 | CN(c1nc(Nc2cnn(C)c2)ncc1Cl)C1COC2C(O)COC21 (stereo not drawn) [Ex. 1, 6-((5-chloro-2-((l-methyl-1H-pyrazol-4-yl)amino)pyrimidin-4-yl)(methyl)amino)hexahydrofuro[3,2-b]furan-3-ol] | 32.8 | 0.88 | 20.6 | 2.01 | 18.2 | 929 | 1.2 | 1.22 | 261 | – | – | – | – | 689
2 | Cc1cnc(Nc2cnn(C)c2)nc1NC1COC2C(O)COC12 (stereo not drawn) [Ex. 3, 6-((5-methyl-2-((1-methyl-1H-pyrazol-4-yl)amino)pyrimidin-4-yl)amino) hexahydrofuro[3,2-b]furan-3-ol] | – | – | – | – | – | – | – | – | 78 | – | – | – | – | –
3 | Cn1cc(Nc2ncc(Cl)c(NC3COC4C(OCCO)COC34)n2)cn1 (stereo not drawn) [Ex. 5, 2-((6-((5-chloro-2-((l-methyl-1H-pyrazol-4-yl)amino)pyrimidin-4-yl)amino)hexahydrofuro[3,2-b]furan-3-yl)oxy)ethanol] | – | – | 12.1 | 3.42 | 25 | 621 | 2.93 | 3.02 | 61 | ∞ | 50 | 57 | – | –

Continued, in another order:

Row | half-life at 5 μM [1, 4] [h] | CLint scaled at 5 μM [1] [mL/min/kg] | half-life at 5 μM [2] [h] | CLint scaled at 5 μM [2] [mL/min/kg] | Cl/F [3] [mL/min/kg] | AUC(0-t) [3] [ng·h/mL] | half-life [3] [h] | Vd [3] [L/kg] | IC50 (JAK1 (h)) [nM] | Human T1/2 [1, 4] | IC50 (Aurora-B (h)) [nM] | IC50 (FLT3 (h)) [nM] | IC50 (Aurora-A (h)) [nM] | SMILES | IC50 (JAK2 (h)) [nM]
4 | 1.52 | 19 | 1.48 | 28 | 20.8 | 822 | 0.83 | 1.39 | – | – | – | – | – | COC1COC2C(Nc3nc(Nc4cnn(C)c4)ncc3Cl)COC12 (stereo not drawn) [Ex. 6, 5-chloro-N^4-(6-methoxyhexahydrofuro[3,2-b]furan-3-yl)-N^2-(1-methyl-1H-pyrazol-4-yl)pyrimidine-2,4-diamine] | –
5 | – | – | – | – | – | – | – | – | – | – | – | – | 99 | Cn1cc(Nc2ncc(Cl)c(NC3COC4C(N)COC34)n2)cn1 (stereo not drawn) [Ex. 7, N^4-(6-aminohexahydrofuro[3,2-b]furan-3-yl)-5-chloro-N^2-(1-methyl-1H-pyrazol-4-yl)pyrimidine-2,4-diamine] | –
6 | 6.28 | 4.61 | 1.64 | 25.2 | 63.7 | 259 | 0.34 | 1.39 | 31 | – | 31 | 11 | 51 | Cn1cc(Nc2ncc(Cl)c(NC3COC4C(NS(C)(=O)=O)COC34)n2)cn1 (stereo not drawn) [Ex. 8, N-(6-((5-chloro-2-((1-methyl-1H-pyrazol-4-yl)amino)pyrimidin-4-yl)amino)hexahydrofuro[3,2-b]furan-3-yl)methanesulfonamide] | –

From patent US9394281B2, “Substituted heteroaryl compounds and methods of use” (Calitor Sciences, LLC, priority 2014, dated 2016)
